A word on the pIC50: it is the IC50 on a negative log10 scale, so that one unit is a factor of ten. A high value points to a small IC50. As usually defined, the melting point is the temperature, or range, at which the solid turns liquid.

pIC50: −log10 of the molar value. A value given as a limit tells only on which side of the number the result lay.

30 compounds from US7521480B2, “Aryl ureido benzoic acid derivatives and their use” (Neurosearch, priority 2002, dated 2009) can be followed below.

One series deals with T1, GluR6 receptor (Homo sapiens, UniProt Q13002).
T1 construct: expressed in transfected cells; host or cells: HEK 293
T1 sequence (Q13002 32-908): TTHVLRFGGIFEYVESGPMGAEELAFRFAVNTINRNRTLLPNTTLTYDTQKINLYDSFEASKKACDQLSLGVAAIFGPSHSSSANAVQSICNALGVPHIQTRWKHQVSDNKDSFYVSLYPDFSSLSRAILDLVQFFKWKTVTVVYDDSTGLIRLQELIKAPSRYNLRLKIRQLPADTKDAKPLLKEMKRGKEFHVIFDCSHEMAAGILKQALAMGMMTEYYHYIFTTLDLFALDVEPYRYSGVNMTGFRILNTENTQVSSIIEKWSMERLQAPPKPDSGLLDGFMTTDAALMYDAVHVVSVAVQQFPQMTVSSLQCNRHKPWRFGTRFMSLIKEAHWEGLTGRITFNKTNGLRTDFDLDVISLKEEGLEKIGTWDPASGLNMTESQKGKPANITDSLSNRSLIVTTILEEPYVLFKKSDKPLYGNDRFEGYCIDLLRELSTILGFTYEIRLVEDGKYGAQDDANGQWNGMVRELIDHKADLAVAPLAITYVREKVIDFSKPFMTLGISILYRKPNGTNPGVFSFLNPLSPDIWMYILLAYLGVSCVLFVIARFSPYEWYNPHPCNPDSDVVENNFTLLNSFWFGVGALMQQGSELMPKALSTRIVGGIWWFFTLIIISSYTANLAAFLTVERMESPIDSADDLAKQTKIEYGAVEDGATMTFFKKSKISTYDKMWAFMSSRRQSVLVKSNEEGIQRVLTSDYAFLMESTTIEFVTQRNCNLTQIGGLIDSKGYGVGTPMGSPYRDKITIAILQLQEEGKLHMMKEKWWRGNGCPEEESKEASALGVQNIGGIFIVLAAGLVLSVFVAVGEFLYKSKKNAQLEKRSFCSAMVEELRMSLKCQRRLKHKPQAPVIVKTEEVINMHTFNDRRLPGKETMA
The experiment in a line: GluR6 functional assay: inhibition of domoate-induced increase in Cai (FLIPR). It counts as cell-based. As to conditions: HEK 293 cells stably expressing GluR6; domoate 0.2 μM; Fluo-4 FLIPR, 25° C. An excerpt:
(§1) This example describes cell-based assays carried out using human embryonic HEK 293 cells stably expressing GluR5 and GluR6 receptors, respectively, in which assays the inhibition of domoate-induced increase in Cai is used as a measure for glutamate antagonist activity of test substances.
(§2) The intracellular free calcium concentration (Cai) is regulating the majority of metabolic processes in mammalian cells. Elevations of Cai in excitable tissues such as neurones are seen after specific activation of receptor operated calcium channels (e.g. glutamate, receptors), or after depolarisation and opening of voltage operated calcium channels. Some neurotransmitters and neuro-modulator increase Cai by activating G-protein coupled ionophors or by release of Cai from intracellular stores via the second messenger IP3.
(§3) Cai is determined by fluorometric methods in a Fluorescent Image Plate Reader (FLIPR). Calcium-chelating fluorochromes (tetracarboxylic acids) are loaded into the cells as acetoxymethyl esters and subsequently released by an unspecific intracellular esterase. The free acids, which are impermeable to the cell membrane, are maintained in the cell for hours. The fluorescence spectrum (either EXmax, EMmax or both) is changed by the binding of calcium, and the fluorescence is directly proportional to the Cai.
The present method uses the fluorochromes Fluo-3 or Fluo-4 as the calcium-chelator. Fluo-3/Fluo-4 is virtually non-fluorescent without calcium, but the calcium-Fluo-3/Fluo-4 complexes show a bright fluorescence (EMmax=526 nm) after excitation around 500 nm (EXmax=505 nm). This fluorescence spectrum is similar to the spectrum of fluorescein. Since excitation and emission is in the visible light region of the spectrum, standard equipment without quarts optics may be used. […]
(§4) After the loading period, the loading media is aspirated and the cells are washed twice with 100 μl Na^+ free Ringer (NN: 10 mM HEPES, 140 mM Choline chloride, 5 mM KCl, 1 mM MgCl2, 10 mM CaCl2, pH 7.4) to remove extracellular dye. 100 μl NN is added to each well, and the fluorescence is measured in the FLIPR.
(§5) Cells are pre-incubated for 1.5 min with test compound (50 μl) before addition of domoate (50 μl) to a final concentration of 2 μM when determined on GluR5 and 0.2 μM when determined on GluR6. […]
• Temperature: 25° C. • Preincubation: 50 μl test solution at a rate of 30 μl/sec and starting height of 100 μl • […] phase: 50 μl domoate solution (8 μM) at a rate of 35 μl/sec and starting height of 150 μl • Reading intervals: preincubation—10 sec×7 and 3 sec×3 antagonist phase—3 sec×17 and 10 sec×12 […]
In the case of `O=C(Nc1cccc(Cl)c1)Nc1cc(Cl)ccc1C(=O)O` [Compound C14, 4-Chloro-2-[3-(3-chloro-phenyl)-ureido]-benzoic acid], the pIC50 is 4.43. For `O=C(Nc1ccc2ccccc2c1)Nc1cc(Cl)ccc1C(=O)O` [Compound E2, 4-Chloro-2-(3-naphtalen-2-yl-ureido)-benzoic acid], the pIC50 was 4.15.

`Cc1cc(S(=O)(=O)O)c(NC(=O)Nc2cccc(Br)c2)cc1Cl` [Compound 1a, 2-[3-(3-Bromo-phenyl)-ureido]-4-chloro-5-methyl-benzenesulfonic acid] showed a pIC50 of 4.49.

“2-[3-(3-Bromo-phenyl)-ureido]-4-chloro-benzenesulfonic acid, triethylammonium salt [Compound A1]” gave a negative-log IC50 (pIC50) of 5.00.

Tested on in the next series: not given
Test: not given
Settings: not given
Take `O=C(Nc1ccc(I)cc1)Nc1cc(Cl)ccc1C(=O)O`: the melting point is 209 to 210 °C (dec.). Same read-out and setting: the value for `COc1ccc(NC(=O)Nc2cc(Cl)ccc2C(=O)O)cc1` was 194 to 195 °C. On the same count and under the same terms, the value for `O=C(Nc1ccc2c(c1)-c1ccccc1C2=O)Nc1cc(Cl)ccc1C(=O)O` was 260 to 263 °C (dec.); that for `O=C(Nc1ccc2ccccc2c1)Nc1cc(Cl)ccc1-c1nnn[nH]1` was 167 to 169 °C (dec.); that for `Cc1cc(S(=O)(=O)O)c(NC(=O)Nc2cc3ccccc3[nH]2)cc1Cl` was 284 to 286 °C (dec.). For `O=C(Nc1cccc(O)c1)Nc1cc(Cl)ccc1C(=O)O`, the melting point was 209 to 211 °C. The compound `O=C(Nc1cccc(Cl)c1)Nc1cc(Cl)ccc1C(=O)O` [Compound C14, 4-Chloro-2-[3-(3-chloro-phenyl)-ureido]-benzoic acid] returned a melting point of 207 to 209 °C. Compound `O=C(Nc1ccccn1)Nc1cc(Cl)ccc1C(=O)O` returned a melting point of 222 to 224 °C. Same read-out and setting: the value for `O=C(Nc1ccc(Cl)cc1)Nc1cc(Cl)ccc1C(=O)O` was 205 to 207 °C; that for `O=C(Nc1cccc(C(F)(F)F)c1)Nc1cc(Cl)ccc1C(=O)O` was 179 to 182 °C. Same read-out and setting: the value for `Cc1cc(S(=O)(=O)O)c(NC(=O)Nc2ccc3ccccc3c2)cc1Cl` was > 300 °C; that for `O=C(Nc1cc(Cl)ccc1C(=O)O)Nc1ccccc1C(F)(F)F` was 173 to 175 °C. The same measure, in the same setting: then `O=C(Nc1ccc2ccccc2c1)Nc1cc(Cl)ccc1C(=O)O` [Compound E2, 4-Chloro-2-(3-naphtalen-2-yl-ureido)-benzoic acid], with 176 to 179 °C.

On to `O=C(Nc1cc(Cl)ccc1C(=O)O)Nc1ccccc1-c1ccccc1`, for which the melting point lay in the range of 208 to 209 °C. The same measure, in the same setting: then `O=C(Nc1cccc(I)c1)Nc1cc(Cl)ccc1C(=O)O`, with 192 to 193 °C. On the same count and under the same terms, the value for `O=C(Nc1ccc(F)cc1)Nc1cc(Cl)ccc1C(=O)O` was 194 to 195 °C. On the same count and under the same terms, then `O=C(Nc1ccccc1)Nc1cc(Cl)ccc1C(=O)O`, with 186 to 188 °C.

For `O=C(Nc1ccccc1Br)Nc1cc(Cl)ccc1C(=O)O`, the melting point lay in the range of 195 to 197 °C. Still for that read-out and setting: the value for `O=C(Nc1cccc(C(F)(F)F)c1)Nc1cc(Cl)ccc1-c1noc(=O)[nH]1` was 246 to 248 °C (dec.); that for `O=C(Nc1ccc(-c2ccccc2)cc1)Nc1cc(Cl)ccc1C(=O)O` was 193 to 194 °C.

Consider `O=C(Nc1cc2ccccc2[nH]1)Nc1cc(Cl)ccc1S(=O)(=O)O`, for which the melting point was 277 to 279 °C (dec.).

With `O=C(Nc1ccc(O)cc1)Nc1cc(Cl)ccc1C(=O)O`, the melting point was 212 to 214 °C (dec.).

`COc1ccccc1NC(=O)Nc1cc(Cl)ccc1C(=O)O` yielded a melting point of 181 to 183 °C. Regarding `O=C(Nc1cccc(Br)c1)Nc1cc(Cl)ccc1-c1noc(=O)[nH]1`, the melting point was 210 to 211 °C (dec.). The same measure, in the same setting: the value for `O=C(Nc1cccc(-c2ccccc2)c1)Nc1cc(Cl)ccc1C(=O)O` was 181 to 183 °C; that for `O=C(Nc1ccccc1O)Nc1cc(Cl)ccc1C(=O)O` was 179 to 180 °C (dec.). With `O=C(Nc1ccc2c(c1)OCO2)Nc1cc(Cl)ccc1C(=O)O`, the melting point was in the range of 183 to 185 °C. On the same count and under the same terms, the value for `O=C(Nc1cccs1)Nc1cc(Cl)ccc1C(=O)O` was 199 to 200 °C.

In a further series the target is T2, GluR5 receptor (Homo sapiens, UniProt P39086).
T2 construct: expressed in transfected cells; host or cells: HEK 293
T2 sequence (P39086 31-918): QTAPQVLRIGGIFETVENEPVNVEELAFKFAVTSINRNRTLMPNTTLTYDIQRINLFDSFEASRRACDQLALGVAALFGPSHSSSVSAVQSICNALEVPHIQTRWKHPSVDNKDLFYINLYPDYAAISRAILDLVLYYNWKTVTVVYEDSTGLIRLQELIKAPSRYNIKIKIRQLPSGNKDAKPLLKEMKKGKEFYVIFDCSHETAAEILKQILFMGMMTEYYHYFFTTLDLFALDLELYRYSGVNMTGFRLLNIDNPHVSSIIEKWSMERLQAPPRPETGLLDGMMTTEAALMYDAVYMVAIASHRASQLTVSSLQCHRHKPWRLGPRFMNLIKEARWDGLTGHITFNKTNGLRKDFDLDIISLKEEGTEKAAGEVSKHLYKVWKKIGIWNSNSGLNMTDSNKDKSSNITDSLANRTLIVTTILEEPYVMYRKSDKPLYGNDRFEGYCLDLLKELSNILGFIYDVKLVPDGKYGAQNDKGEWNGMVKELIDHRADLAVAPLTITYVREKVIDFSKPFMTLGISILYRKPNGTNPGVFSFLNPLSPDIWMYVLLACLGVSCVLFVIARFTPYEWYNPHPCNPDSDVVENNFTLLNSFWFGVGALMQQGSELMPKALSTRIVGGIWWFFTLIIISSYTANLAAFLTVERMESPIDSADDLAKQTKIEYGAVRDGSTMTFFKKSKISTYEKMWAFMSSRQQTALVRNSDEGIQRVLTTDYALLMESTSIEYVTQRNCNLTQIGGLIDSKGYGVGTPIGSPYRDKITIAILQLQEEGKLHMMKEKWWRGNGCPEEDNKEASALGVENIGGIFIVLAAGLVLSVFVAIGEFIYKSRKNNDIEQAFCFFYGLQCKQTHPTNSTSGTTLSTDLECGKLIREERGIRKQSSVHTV
The experiment in a line: GluR5 functional assay: inhibition of domoate-induced increase in Cai (FLIPR). In kind it is cell-based. The following applies: HEK 293 cells stably expressing GluR5; domoate 2 μM; Fluo-4 FLIPR, 25° C.
Description: as §1, §2, §3
The present method uses the fluorochromes Fluo-3 or Fluo-4 as the calcium-chelator. Fluo-3/Fluo-4 is virtually non-fluorescent without calcium, but the calcium-Fluo-3/Fluo-4 complexes show a bright fluorescence (EMmax=526 nm) after excitation around 500 nm (EXmax=505 nm). This fluorescence spectrum is similar to the spectrum of fluorescein. Since excitation and emission is in the visible light region of the spectrum, standard equipment without quarts optics may be used.
The kainate subtype of ionotropic glutamate receptors exists of two high affinity subunits—KA1 and KA2, and three low affinity subunits—GluR5-7. The ion channel in the GluR5 receptor subtype can be made permeable for calcium by substitution of an arginine (R) to a glutamine (Q) in the pore region. The stably expressed human GluR5 receptors used here are calcium permeable (Q), which makes them ideal for fluorescence measurements. […]
as §4, §5
`O=C(Nc1cccc(Cl)c1)Nc1cc(Cl)ccc1C(=O)O` [Compound C14, 4-Chloro-2-[3-(3-chloro-phenyl)-ureido]-benzoic acid] gave a negative-log IC50 (pIC50) of 5.89.

The compound `O=C(Nc1ccc2ccccc2c1)Nc1cc(Cl)ccc1C(=O)O` [Compound E2, 4-Chloro-2-(3-naphtalen-2-yl-ureido)-benzoic acid] had a pIC50 of 5.92. The same measure, in the same setting: then `Cc1cc(S(=O)(=O)O)c(NC(=O)Nc2cccc(Br)c2)cc1Cl` [Compound 1a, 2-[3-(3-Bromo-phenyl)-ureido]-4-chloro-5-methyl-benzenesulfonic acid], with 5.96; and “2-[3-(3-Bromo-phenyl)-ureido]-4-chloro-benzenesulfonic acid, triethylammonium salt [Compound A1]”, with 5.82.
